Experimental data as given in patent US20150203444A1, “POLYMORPHS OF N-((S)-3-AMINO-1-(HYDROXYAMINO)-3-METHYL-1-OXOBUTAN-2-YL)-4-(((1R,2R)-2-(HYDROXYMETHYL)CYCLOPROPYL)BUTA-1,3-DIYNYL)BENZAMIDE” (Achaogen, Inc., priority 2011, published 2015).
Where a name gives a salt, the structure may show the parent alone.

Legend:
[1] = test system: Pseudomonas aeruginosa ATCC27853; assay: MIC by broth microdilution (CLSI), APAE001; type: cell-based; conditions: ATCC27853, read-out: Minimum Inhibitory Concentration (MIC) APAE001
Method: (§1) Bacterial isolates were cultivated from −70° C. frozen stocks by overnight passages at 35° C. in ambient air on Mueller-Hinton agar (Beckton Dickinson, Franklin Lakes, N.J.). Clinical isolates tested were obtained from various geographically diverse hospitals in the US and abroad (Focus Diagnostics, Herndon, Va. and JMI, North Liberty, Iowa). Quality control strains were from the American Type Culture Collection (ATCC; Rockville, Md.).
(§2) Minimum Inhibitory Concentrations (MICs) were determined by the broth microdilution method in accordance with the Clinical and Laboratory Standards Institute (CLSI) guidelines. In brief, organism suspensions were adjusted to a 0.5 McFarland standard to yield a final inoculum between 3×10^5 and 7×10^5 colony-forming units (CFU)/mL. Drug dilutions and inocula were made in sterile, cation adjusted Mueller-Hinton Broth (Beckton Dickinson). An inoculum volume of 100 μL was added to wells containing 100 μL of broth with 2-fold serial dilutions of drug. All inoculated microdilution trays were incubated in ambient air at 35° C. for 18-24 h. Following incubation, the lowest concentration of the drug that prevented visible growth (OD600 nm<0.05) was recorded as the MIC. Performance of the assay was monitored by the use of laboratory quality-control strains and levofloxacin, a compound with a defined MIC spectrum, in accordance with CLSI guidelines. […]

[2] = test system: E. coli ATCC25922; assay: MIC by broth microdilution (CLSI), AECO001; type: cell-based; conditions: Escherichia coli, ATCC25922, read-out: Minimum Inhibitory Concentration (MIC) AECO001
Method: as §1, §2

[3] = test system: clinical isolate of Pseudomonas aeruginosa expressing a normal level of efflux activity; assay: MIC by broth microdilution (CLSI), APAE002; type: cell-based; conditions: read-out: Minimum Inhibitory Concentration (MIC) APAE002
Method: as §1, §2

[4] = test system: Klebsiella pneumoniae ATCC43816; assay: MIC by broth microdilution (CLSI), AKPN001; type: cell-based; conditions: ATCC43816, read-out: Minimum Inhibitory Concentration (MIC) AKPN001
Method: as §1, §2

[5] = Stability at elevated temperature (XRPD form check and HPLC purity); type: physicochemical; conditions: for % AUC (Following exposure): HPLC purity after seven days at 60° C.; for % AUC (Control): HPLC purity, control before exposure
Method: Approximately 10 mg of Form A, Form B and Form C were weighed to individual 4-mL amber vials covered with a kimwipe and stored in an oven at 60° C. and ambient pressure. After seven days of exposure, the solids were be analyzed by XRPD to check for form conversion and HPLC for purity (see Table 5).

[6] = Competitive slurry experiments (XRPD); type: physicochemical; conditions: competitive slurry of Forms A, B and C together, IPA:IBAc (10:90), room temperature
Method: Approximately 10 mg of Form A, B and C were weighed into 2.0-mL vials equipped with a stir bar. 0.5 mL of solvent was added and the resulting free flowing slurry was allowed to equilibrate with stirring at room temperature. Samples were pulled at one day and seven day time points, filtered through 0.45 micron centrifuge filters, dried overnight at room temperature under vacuum and analyzed by XRPD (see Table 7).

[7] = Solid-state properties of the polymorphs (summary statement); type: physicochemical
[8] = Stability at elevated humidity (XRPD form check); type: physicochemical; conditions: summary statement
Method: Approximately 30 mg of Form A, Form B and Form C were placed on an XRPD slide and kept inside a glass jar containing a water solution saturated with NaCl. The solution maintains 75% relative humidity inside the jar. The container was covered with aluminum foil to prevent exposure to light. The sample was kept in this environment for seven days at room temperature. After this time period the slide was removed from the chamber and analyzed immediately by XRPD (see Table 4).

| Structure (SMILES) | MIC [1] [µg/mL] | MIC [2] [µg/mL] | MIC [3] [µg/mL] | MIC [4] [µg/mL] | % AUC (Following exposure) [5] [% AUC] | % AUC (Control) [5] [% AUC] | XRPD Final Form (1 day) [6] | Thermodynamic stability among the three polymorphic forms [7] | Stability to exposure to elevated relative humidity [8] | Stability to prolonged thermal stress ([5]; summary statement) | Hygroscopicity ([7]; solid) |
| --- | --- | --- | --- | --- | --- | --- | --- | --- | --- | --- | --- |
| CC(C)(N)[C@H](NC(=O)c1ccc(C#CC#C[C@@H]2C[C@H]2CO)cc1)C(=O)NO [I (trifluoroacetate salt), N—((S)-3-amino-1-(hydroxyamino)-3-methyl-1-oxobutan-2-yl)-4-(((1R,2R)-2-(hydroxymethyl)cyclopropyl)buta-1,3-diynyl)benzamide trifluoroacetate salt] | < 2 | < 2 | < 2 | < 2 |  |  |  |  |  |  |  |
| CC(C)(N)[C@H](NC(=O)c1ccc(C#CC#C[C@@H]2C[C@H]2CO)cc1)C(=O)NO [Form C, N—((S)-3-amino-1-(hydroxyamino)-3-methyl-1-oxobutan-2-yl)-4-(((1R,2R)-2-(hydroxymethyl)cyclopropyl)buta-1,3-diynyl)benzamide] |  |  |  |  | 95.5 | 99.0 | A + B | metastable |  |  |  |
| CC(C)(N)[C@H](NC(=O)c1ccc(C#CC#C[C@@H]2C[C@H]2CO)cc1)C(=O)NO [Form B, N—((S)-3-amino-1-(hydroxyamino)-3-methyl-1-oxobutan-2-yl)-4-(((1R,2R)-2-(hydroxymethyl)cyclopropyl)buta-1,3-diynyl)benzamide] |  |  |  |  | 97.4 | 99.6 | A + B | most thermodynamically stable | exhibited stability | exhibited stability |  |
| CC(C)(N)[C@H](NC(=O)c1ccc(C#CC#C[C@@H]2C[C@H]2CO)cc1)C(=O)NO [Form A, N—((S)-3-amino-1-(hydroxyamino)-3-methyl-1-oxobutan-2-yl)-4-(((1R,2R)-2-(hydroxymethyl)cyclopropyl)buta-1,3-diynyl)benzamide] |  |  |  |  | 94.5 | 99.2 | A + B |  |  |  | moderately hygroscopic |
